# Patent publication US6946547B2, “Ecstasy-class analogs and use of same in detection of ecstasy-class compounds” (Microgenics Corporation, priority 2000, dated 2005)
# Marks after values point to notes of the source that are not given here.
# Key:
# [1] = tested on: Antibody 1A9; assay: CEDIA ecstasy-class assay on a Hitachi clinical chemistry analyzer; format: binding, mouse; conditions: for detection in the CEDIA ecstasy-class MDMA assay: in words
# Description: Antibodies obtained using any of the aforementioned techniques are screened or purified not only for their ability to react with an ecstasy-class compound, but also for a low cross-reactivity with potential interfering substances. “Cross reactivity” is determined in a quantitative immunoassay by establishing a standard curve using known dilutions of the target analyte, e.g., MDMA. […] The cross-reactivity is the apparent concentration divided by the actual concentration multiplied by 100. […] Alternatively, the cross-reactivity can be determined in the same type of immunoassay in which the antibody will ultimately be used.
# • a. Preparation of Reagents:
# Enzyme Donor (ED) Reagent was prepared as a liquid reagent with the components below:
# Assay Protocol: The assay was performed on a Hitachi clinical chemistry analyzer as follows: Sample was pipetted into a reaction cuvette. EA reagent, containing antibody, was added. The mixture was incubated at 37° C. for approximately 5 minutes. ED reagent containing […] was subsequently added, and the incubation continued for 4 minutes at 37° C. The rate of substrate hydrolysis was measured photometrically at 570 nm (with subtraction of background at 660 nm) from four to five minutes after ED addition.
# [2] = Standard CEDIA DAU Amphetamines assay, Hitachi 911; conditions: methamphetamine = 100
# [3] = tested on: 1A9 anti-ecstasy antibody; assay: Enhanced CEDIA DAU Amphetamines assay (1A9 antibody and ED28-(MB-MDA)2 added); conditions: methamphetamine = 100
# [4] = Antibody 1A9, Experiment 1, concentration 300 ng/mL
# [5] = Antibody 1A9, Experiment 1, concentration 1000 ng/mL
# [6] = Antibody 1A9, Experiment 1, concentration 5000 ng/mL
# [7] = antibody 1A9, summary of detected ecstasy-class compounds
# [8] = Antibody 1A9, Experiment 2, concentration 600,000 ng/mL
# [9] = Antibody 1A9, Experiment 2, concentration 1,000,000 ng/mL
molecule,measurement,setting,value
"CCC(N)Cc1ccc2c(c1)OCO2 (centres unmarked) [BDB, 1-(3,4-methylenedioxyphenyl)-2-butanamine]",Cross-Reactivity,[1]; [4],33%
same,Cross-Reactivity,[1]; [5],50* %
same,Cross-Reactivity,[1]; [6],30%
same,Cross-Reactivity,[1]; [7],33%
same,"Cross-reactivity, Standard CEDIA Amphetamines",[2]; concentration 300 ng/ml,5
same,"Cross-reactivity, Standard CEDIA Amphetamines",[2]; concentration 500 ng/ml,7
same,"Cross-reactivity, Enhanced CEDIA Amphetamines",[3]; concentration 300 ng/ml,105
same,"Cross-reactivity, Enhanced CEDIA Amphetamines",[3]; concentration 500 ng/ml,125
"CNC(C)Cc1ccc(O)c(OC)c1 (centres unmarked) [HMMA, 4-hydroxy-3-methoxymethamphetamine]",Cross-Reactivity,[1]; [4],<0.1%
same,Cross-Reactivity,[1]; [5],<0.1%
same,Cross-Reactivity,[1]; [6],<0.1%
same,detection in the CEDIA ecstasy-class MDMA assay,[1]; antibody 1A9,detected neither
"CCC(Cc1ccc2c(c1)OCO2)NC (centres unmarked) [MBDB, N-methyl-1-(3,4-methylenedioxyphenyl)-2-butanamine]",Cross-Reactivity,[1]; [4],23%
same,Cross-Reactivity,[1]; [5],29* %
same,Cross-Reactivity,[1]; [6],18%
same,Cross-Reactivity,[1]; [7],23%
same,"Cross-reactivity, Standard CEDIA Amphetamines",[2]; concentration 300 ng/ml,64
same,"Cross-reactivity, Standard CEDIA Amphetamines",[2]; concentration 500 ng/ml,73
same,"Cross-reactivity, Enhanced CEDIA Amphetamines",[3]; concentration 300 ng/ml,80
same,"Cross-reactivity, Enhanced CEDIA Amphetamines",[3]; concentration 500 ng/ml,97
"CC(N)Cc1ccc2c(c1)OCO2 (centres unmarked) [MDA, 3,4-methylenedioxyamphetamine]",Cross-Reactivity,[1]; [4],55%
same,Cross-Reactivity,[1]; [5],68* %
same,Cross-Reactivity,[1]; [6],63%
same,Cross-Reactivity,[1]; [7],55%
same,"Cross-reactivity, Standard CEDIA Amphetamines",[2]; concentration 300 ng/ml,5
same,"Cross-reactivity, Standard CEDIA Amphetamines",[2]; concentration 500 ng/ml,4
same,"Cross-reactivity, Enhanced CEDIA Amphetamines",[3]; concentration 300 ng/ml,81
same,"Cross-reactivity, Enhanced CEDIA Amphetamines",[3]; concentration 500 ng/ml,91
"CCNC(C)Cc1ccc2c(c1)OCO2 (centres unmarked) [MDEA, N-ethyl-3,4-methylenedioxyamphetamine]",Cross-Reactivity,[1]; [4],155* %
same,Cross-Reactivity,[1]; [5],484%
same,Cross-Reactivity,[1]; [7],155%
same,"Cross-reactivity, Standard CEDIA Amphetamines",[2]; concentration 300 ng/ml,22
same,"Cross-reactivity, Standard CEDIA Amphetamines",[2]; concentration 500 ng/ml,21
same,"Cross-reactivity, Enhanced CEDIA Amphetamines",[3]; concentration 300 ng/ml,153
"CNC(C)Cc1ccc2c(c1)OCO2 (centres unmarked) [MDMA, 3,4-methylenedioxymethamphetamine]",Cross-Reactivity,[1]; [7],100%
same,"Cross-reactivity, Standard CEDIA Amphetamines",[2]; concentration 300 ng/ml,49
same,"Cross-reactivity, Standard CEDIA Amphetamines",[2]; concentration 500 ng/ml,50
same,"Cross-reactivity, Enhanced CEDIA Amphetamines",[3]; concentration 300 ng/ml,129
CN[C@@H](C)Cc1ccccc1 [Methamphetamine],Cross-Reactivity,[1]; [8],0.056%
same,detection in the CEDIA ecstasy-class MDMA assay,[1]; antibody 1A9,detected neither
same,"Cross-reactivity, Standard CEDIA Amphetamines",[2]; concentration 300 ng/ml,100
same,"Cross-reactivity, Standard CEDIA Amphetamines",[2]; concentration 500 ng/ml,100
same,"Cross-reactivity, Enhanced CEDIA Amphetamines",[3]; concentration 300 ng/ml,100
same,"Cross-reactivity, Enhanced CEDIA Amphetamines",[3]; concentration 500 ng/ml,100
CC(N)C(O)c1ccccc1 (centres unmarked) [phenylpropanolamine],Cross-Reactivity,[1]; [9],0.0041%
CN[C@@H](C)[C@@H](O)c1ccccc1 [pseudoephedrine],Cross-Reactivity,[1]; [8],0.0017%
(±)ephedrine,Cross-Reactivity,[1]; [9],0.0047%
